From US8765779B2, “Tricyclic derivatives and their pharmaceutical use and compositions” (Cephalon, Inc., priority 2009, dated 2014)
Where a name gives a salt, the structure may show the parent alone.

biological target: T1, human 5-HT6 receptor (Homo sapiens, UniProt P50406); test: Human 5-HT6 Receptor Binding Assay ([3H]LSD displacement, scintillation beads); settings: membranes of CHO-K1 cells with recombinant human 5-HT6, 4 nM [3H]LSD; Table 1, class symbols; read-out: h5-HT6 (Ki)
T1 construct: host or cells: CHO-K1 cells, stably transfected; membranes prepared in house
T1 sequence (P50406 whole entry): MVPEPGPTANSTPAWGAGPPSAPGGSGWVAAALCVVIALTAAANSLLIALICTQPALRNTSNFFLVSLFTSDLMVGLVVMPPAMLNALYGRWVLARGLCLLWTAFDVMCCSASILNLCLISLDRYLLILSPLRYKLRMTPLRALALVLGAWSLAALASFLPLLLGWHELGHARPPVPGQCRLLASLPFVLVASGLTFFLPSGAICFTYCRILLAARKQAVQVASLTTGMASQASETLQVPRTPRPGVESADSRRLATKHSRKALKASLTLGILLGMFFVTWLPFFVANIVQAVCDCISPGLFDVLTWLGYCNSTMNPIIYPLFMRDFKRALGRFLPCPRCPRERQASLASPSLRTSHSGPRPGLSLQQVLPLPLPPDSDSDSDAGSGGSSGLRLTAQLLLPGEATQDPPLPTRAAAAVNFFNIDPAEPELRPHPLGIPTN
Method: Human 5-HT6 Receptor Binding Assay
Membranes were prepared from CHO—K1 cells stably transfected with the human 5-HT6 receptor (Euroscreen; ES-316-C). The cells were grown in Gibco Advanced DMEM-F12 (Cat#12634010) containing 2% dialyzed FBS (Hyclone Cat#SH30079.03). The cells were harvested in phosphate buffered saline (PBS) containing 0.1 mM EDTA and pelleted by centrifugation (1000×g), the supernatant was discarded and the pellets were stored at −80° C. prior to membrane preparation. Membranes were prepared as previously described (J Bio Chem. 1992, 267 (14) 9844-51). Briefly, frozen cell pellet was resuspended in a lysis buffer containing 5 mM Tris-HCl (pH 7.5), 5 mM EDTA and 1 complete EDTA-free protease inhibitor tablet (Roche Applied Science, Indianapolis, Ind.) per 50 mL buffer, and homogenized with a tissue homogenizer. The cell lysate was then centrifuged at 40,000×g for 30 min at 4° C. to collect the membranes. The membrane pellets were washed in membrane buffer (50 mM Tris-HCl (pH 7.5), 0.6 mM EDTA, 5 mM MgCl2, 1 complete EDTA-free protease inhibitor tablet per 50 mL buffer) using a tissue homogenizer. The membranes were centrifuged at 40,000×g for 30 min at 4° C. and the pellets were resuspended in membrane buffer containing 250 mM sucrose, and protein concentration was determined using the Coomassie Plus kit (Pierce Biotechnology, Rockford, Ill.).
Membranes prepared from cells expressing recombinant human 5-HT6 receptor (h5-HT6) were resuspended in assay buffer containing 50 mM Tris HCl, (pH7.4), 4 mM CaCl2, 10 μg/mL saponin, and 0.1% (w/v) ascorbic acid. Membranes were preincubated using 1.75 μg membrane protein and 0.25 mg FlashBlue scintillation beads (PerkinElmer catalogue #FB001) per well at 4° for 30 min. […] Test compounds or assay controls for total and non-specific binding were diluted in DMSO as 100× solutions and serially diluted by half log concentrations on a Perkin Elmer JANUS Automated Workstation. Serotonin (10 μM final concentration) was used to determine non-specific binding in the assay. Plates were read using the Microbeta Trilux 1450 LSC and luminescence counter. Data were analyzed by nonlinear […] using the dose-response equation (variable slope) to calculate IC50 in XLfit4 (ID Business Solutions Inc.): y=(Bottom+((Top−Bottom)/(1+((IC50/x)^Hill slope))))
Ki value was then calculated according to the Cheng-Prusoff method using the equation below (Cheng and Prusoff, 1973): Ki,app=IC50/(1+[radioligand]/Kd))

`COCC1(C)NCCc2c1oc1cc(S(=O)(=O)c3cccc(F)c3)ccc21` (centres unmarked) [Example 633] and `CC1OCCC12NCCc1c2oc2cc(S(=O)(=O)c3cccc(F)c3)ccc12` (single isomer, unassigned) [Example 59, 7-[(3-Fluorophenyl)sulfonyl]-2′-methyl-3,4,4′,5′-tetrahydro-2H-spiro[1-benzofuro[2,3-c]pyridine-1,3′-furan]] cannot be ordered by Ki: under 500 nM for the first, under 500 nM for the second.

`O=S(=O)(c1ccc2oc3c(c2c1)CCNC3)c1ccccc1Cl` [Example 276] and `O=S(=O)(c1ccccc1)c1ccc2oc3c(c2c1)CCNC3` [Example 348] cannot be ordered by Ki: under 500 nM for the first, under 500 nM for the second.

`CC12CCNCC1Oc1ccc(OS(=O)(=O)c3ccc(-n4cccn4)cc3)cc12` (centres unmarked) [Example 776] and `CC12CCNCC1Oc1ccc(OS(=O)(=O)c3cccc4cccnc34)cc12` (centres unmarked) [Example 770] cannot be ordered by Ki: over 1000 nM for the first, over 1000 nM for the second.

`CC(=O)NCC1NCCc2c1oc1cc(S(=O)(=O)c3cccc(F)c3)ccc21` (racemic) [Example 535, N-({7-[(3-fluorophenyl)sulfonyl]-1,2,3,4-tetrahydro[1]benzofuro[2,3-c]pyridin-1-yl}methyl)acetamide] and `CC(=O)N(C)CC1NCCc2c1oc1cc(S(=O)(=O)c3cccc(Cl)c3)ccc21` (racemic) [Example 541, N-({7-[(3-chlorophenyl)sulfonyl]-1,2,3,4-tetrahydro[1]benzofuro[2,3-c]pyridin-1-yl}methyl)-N-methylacetamide] cannot be ordered by Ki: under 500 nM for the first, under 500 nM for the second.

Going from `COc1ccc(S(=O)(=O)c2ccc3oc4c(c3c2)CCNC4C)cc1F` (centres unmarked) [Example 285] to `Cc1cc(S(=O)(=O)c2ccc3oc4c(c3c2)CCNC4)ccc1F` [Example 268], the Ki falls from over 1000 nM to under 500 nM. The second binds more tightly here.

`Cc1cccc(S(=O)(=O)c2ccc3c4c(oc3c2)C(C)(C)NCC4)n1` [Example 19, 1,1-dimethyl-7-[(6-methylpyridin-2-yl)sulfonyl]-1,2,3,4-tetrahydro[1]benzofuro[2,3-c]pyridine] and `O=S(=O)(c1cccc(Cl)c1)c1ccc2c3c(oc2c1)CNCC3` [Example 340, 7-[(3-chlorophenyl)sulfonyl]-1,2,3,4-tetrahydro[1]benzofuro[2,3-c]pyridine] cannot be ordered by Ki: under 500 nM for the first, under 500 nM for the second.

Compared with `O=S(=O)(c1cncc(C(F)(F)F)c1)c1ccc2c(c1)OC1CNCCC21` (centres unmarked) [Example 459], `O=S(=O)(c1ccc2c(c1)OC1CNCCC21)c1cccnc1C(F)(F)F` (centres unmarked) [Example 410] is lower in Ki: over 1000 nM for the first, 500 to 1000 nM for the second. The second binds more tightly here.

Going from `O=S(=O)(Nc1ccc2c(c1)C1CCNCC1O2)c1ccc(Cl)c(Cl)c1` (centres unmarked) [Example 827] to `O=S(=O)(Nc1ccccc1)c1ccc2c(c1)C1CCNCC1O2` (centres unmarked) [Example 848], the Ki rises from under 500 nM to over 1000 nM.

`CC(=O)N1CCC2(CC1)NCCc1c2oc2cc(S(=O)(=O)c3cccc(F)c3)ccc12` [Example 41, 1-{7-[(3-fluorophenyl)sulfonyl]-3,4-dihydro-1′H,2H-spiro[1-benzofuro[2,3-c]pyridine-1,4′-piperidin]-1′-yl}ethanone] and `O=S(=O)(c1cccc(F)c1)c1ccc2c3c(oc2c1)C1CCN1CC3` (centres unmarked) [Example 616, 8-[(3-Fluorophenyl)sulfonyl]-1,4,5,10b-tetrahydro-2H-azeto[1,2-a][1]benzofuro[2,3-c]pyridine] cannot be ordered by Ki: under 500 nM for the first, under 500 nM for the second.

Going from `CC12CCNCC1Oc1ccc(OS(=O)(=O)c3ccccc3C(F)(F)F)cc12` (centres unmarked) [Example 779] to `CC(C)Oc1cccc(S(=O)(=O)c2ccc3c(c2)OC2CNCCC32C)c1` (single isomer, unassigned) [Example 20, 4a-methyl-7-{[3-(propan-2-yloxy)phenyl]sulfonyl}-1,2,3,4,4a,9a-hexahydro[1]benzofuro[2,3-c]pyridine], the Ki falls from over 1000 nM to under 500 nM.

First: CC(=O)N1CCC2c3ccc(S(=O)(=O)c4ccccc4)cc3OC2C1 (centres unmarked) [Example 613, 1-[7-(Phenylsulfonyl)-3,4,4a,9a-tetrahydro[1]benzofuro[2,3-c]pyridin-2(1H)-yl]ethanone]
Second: O=S(=O)(c1ccc(F)cc1)c1ccc2c(c1)OC1CNCCC21 (centres unmarked) [Example 134]
The Ki of the first is higher: over 1000 nM for the first, under 500 nM for the second.

`O=S(=O)(c1ccc2c(c1)OC1CNCCC21)c1cccc2c1OC(F)(F)O2` (centres unmarked) [Example 469] and `COc1cccc(S(=O)(=O)c2ccc3c(c2)OC2CNCCC32)c1F` (centres unmarked) [Example 404] cannot be ordered by Ki: under 500 nM for the first, under 500 nM for the second.

`O=S(=O)(Oc1ccc2c(c1)OC1CNCCC21)c1ccc(Cl)cc1` (centres unmarked) [Example 635, 1,2,3,4,4a,9a-Hexahydro[1]benzofuro[2,3-c]pyridin-7-yl 4-chlorobenzenesulfonate] and `Cc1ccc(S(=O)(=O)Oc2ccc3c(c2)C2CCNCC2O3)cc1` (centres unmarked) [Example 700] cannot be ordered by Ki: under 500 nM for the first, under 500 nM for the second.

`O=S(=O)(c1ccc2c(c1)OC1CNCCC21)c1cc(F)cc(F)c1F` (centres unmarked) [Example 386] and `CC(C)Oc1cc(F)cc(S(=O)(=O)c2ccc3c(c2)OC2CNCCC32)c1` (centres unmarked) [Example 417] cannot be ordered by Ki: under 500 nM for the first, under 500 nM for the second.

`CN(C)C(=O)c1c(F)cccc1S(=O)(=O)c1ccc2c(c1)OC1CNCCC21` (centres unmarked) [Example 476] and `CNC(=O)c1c(F)cccc1S(=O)(=O)c1ccc2c(c1)OC1CNCCC21` (centres unmarked) [Example 477] cannot be ordered by Ki: over 1000 nM for the first, over 1000 nM for the second.

First: O=S(=O)(c1ccc2c(c1)C1CCNCC1O2)c1ccccc1Cl (centres unmarked) [Example 169]
Second: O=S(=O)(c1cccc(Cl)c1)c1ccc2c(c1)C1CCNCC1O2 (centres unmarked) [Example 294, 6-[(3-Chlorophenyl)sulfonyl]-1,2,3,4,4a,9a-hexahydro[1]benzofuro[2,3-c]pyridine trifluoroacetic acid salt]
The Ki of the first is higher: 500 to 1000 nM for the first, under 500 nM for the second.

Compared with `[O-][S+](c1ccc(OC(F)(F)F)cc1)c1ccc2c3c(oc2c1)CNCC3` (centres unmarked) [Example 226, 7-{[4-(trifluoromethoxy)phenyl]sulfi-nyl}-1,2,3,4-tetrahydro[1]benzofuro[2,3-c]pyridine], `O=S(=O)(c1ccc(Oc2ccccc2)cc1)c1ccc2c3c(oc2c1)CNCC3` [Example 201] is lower in Ki: over 1000 nM for the first, under 500 nM for the second.

`COc1cc(OC(C)C)cc(S(=O)(=O)c2ccc3c(c2)OC2CN(C4CCC4)CCC32)c1` (centres unmarked) [Example 612] and `COc1cc(OC(C)C)cc(S(=O)(=O)c2ccc3c(c2)OC2CNCCC32)c1` (centres unmarked) [Example 78] cannot be ordered by Ki: under 500 nM for the first, under 500 nM for the second.

`O=S(=O)(c1ccc(Cl)c(Cl)c1)c1ccc2oc3c(c2c1)CCNC3` [Example 261, 6-[(3,4-dichlorophenyl)sulfonyl]-1,2,3,4-tetrahydro[1]benzofuro[2,3-c]pyridine] and `O=S(=O)(c1ccc(Cl)c(Cl)c1)c1ccc2c3c(oc2c1)CNCC3` [Example 197, 7-[(3,4-dichlorophenyl)sulfonyl]-1,2,3,4-tetrahydro[1]benzofuro[2,3-c]pyridine] cannot be ordered by Ki: under 500 nM for the first, under 500 nM for the second.

`O=S(=O)(c1cccc(Cl)c1)c1ccc2c3c(oc2c1)C(C1CC1)NCC3` (centres unmarked) [Example 503] and `CC(=O)N(C)CCC1NCCc2c1oc1cc(S(=O)(=O)c3cccc(Cl)c3)ccc21` (racemic) [Example 542, N-(2-{7-[(3-chlorophenyl)sulfonyl]-1,2,3,4-tetrahydro[1]benzofuro[2,3-c]pyridin-1-yl}ethyl)-N-methylacetamide] cannot be ordered by Ki: under 500 nM for the first, under 500 nM for the second.

First: Cc1ccc(S(=O)(=O)Oc2ccc3c(c2)C2CCNCC2O3)cc1F (centres unmarked) [Example 709]
Second: CC(=O)Nc1ccc(S(=O)(=O)Oc2ccc3c(c2)C2CCNCC2O3)cc1 (centres unmarked) [Example 728]
The Ki of the first is lower: 500 to 1000 nM for the first, over 1000 nM for the second. The first binds more tightly here.

Compared with `[O-][S+](c1cccc(F)c1)c1ccc2c(c1)OC1CNCCC21` (centres unmarked) [Example 625, 7-[(3-Fluorophenyl)sulfinyl]-1,2,3,4,4a,9a-hexahydro[1]benzofuro[2,3-c]pyridine trifluoroacetic acid salt], `[O-][S+](c1cncc(F)c1)c1ccc2c(c1)OC1CNCCC21` (centres unmarked) [Example 396] is higher in Ki: under 500 nM for the first, over 1000 nM for the second. The first binds more tightly here.

First: O=S(=O)(Oc1ccc2c(c1)OC1CNCCC21)c1cccc2cnccc12 (centres unmarked) [Example 684]
Second: O=S(=O)(c1cccc(OCc2ccccn2)c1)c1ccc2c(c1)OC1CNCCC21 (centres unmarked) [Example 562]
The Ki of the first is higher: 500 to 1000 nM for the first, under 500 nM for the second. The second binds more tightly here.

`CC12CCN(C3CCCCC3)CC1Oc1ccc(OS(=O)(=O)Cc3ccccc3)cc12` (centres unmarked) [Example 807] and `CN1CCC2(C)c3cc(OS(=O)(=O)Cc4ccccc4)ccc3OC2C1` (centres unmarked) [Example 809] cannot be ordered by Ki: over 1000 nM for the first, over 1000 nM for the second.

`O=S(=O)(c1cccc(OCC2CCOCC2)c1)c1ccc2c(c1)OC1CNCCC21` (single isomer, unassigned) [Example 548, 7-{[3-(Tetrahydro-2H-pyran-4-ylmethoxy)phenyl]sulfonyl}-1,2,3,4,4a,9a-hexahydro[1]benzofuro[2,3-c]pyridine] and `CCOc1cc(F)cc(S(=O)(=O)c2ccc3c(c2)OC2CNCCC32C)c1` (centres unmarked) [Example 426] cannot be ordered by Ki: under 500 nM for the first, under 500 nM for the second.
